The values that follow come from publication PMC6660241 (The Journal of organic chemistry, 2019).

Read-outs that look alike come from different tables or passages of the source. Bounds are passed on as bounds.

Assay [1] addresses T1, hNEU2 (Homo sapiens, UniProt Q9Y3R4). Description: Sialidase inhibition assay. It counts as biochemical. The settings on record: read-out: Percentage inhibition, hNEU2.
Assay [2] has as its target T2, A. ureafaciens sialidase (Paenarthrobacter ureafaciens, UniProt Q5W7Q2). Description: Sialidase inhibition assay. Particulars: read-out: Percentage inhibition, A. ureafaciens. It counts as biochemical, Arthrobacter ureafaciens.
The target in assay [3] is T3, BiNanH2 (Bifidobacterium longum subsp. infantis, UniProt A0ACD7UU12). Description: biochemical. It counts as biochemical, Bifidobacterium longum subsp. infantis ATCC15697.
The target in assay [4] is T4, PmST1 (Pasteurella multocida, UniProt Q15KI8). Put plainly: biochemical. Particulars: for inhibition at 100 µM / inhibition at 1000 µM: read-out: Percentage inhibition, PmST1.
In assay [5] the target is SpNanB (Streptococcus pneumoniae serotype 4, UniProt Q54727). Description: biochemical. Particulars: for inhibition at 100 µM / inhibition at 1000 µM: read-out: Percentage inhibition, SpNanB.
Chain of SpNanB (Q54727 30-697): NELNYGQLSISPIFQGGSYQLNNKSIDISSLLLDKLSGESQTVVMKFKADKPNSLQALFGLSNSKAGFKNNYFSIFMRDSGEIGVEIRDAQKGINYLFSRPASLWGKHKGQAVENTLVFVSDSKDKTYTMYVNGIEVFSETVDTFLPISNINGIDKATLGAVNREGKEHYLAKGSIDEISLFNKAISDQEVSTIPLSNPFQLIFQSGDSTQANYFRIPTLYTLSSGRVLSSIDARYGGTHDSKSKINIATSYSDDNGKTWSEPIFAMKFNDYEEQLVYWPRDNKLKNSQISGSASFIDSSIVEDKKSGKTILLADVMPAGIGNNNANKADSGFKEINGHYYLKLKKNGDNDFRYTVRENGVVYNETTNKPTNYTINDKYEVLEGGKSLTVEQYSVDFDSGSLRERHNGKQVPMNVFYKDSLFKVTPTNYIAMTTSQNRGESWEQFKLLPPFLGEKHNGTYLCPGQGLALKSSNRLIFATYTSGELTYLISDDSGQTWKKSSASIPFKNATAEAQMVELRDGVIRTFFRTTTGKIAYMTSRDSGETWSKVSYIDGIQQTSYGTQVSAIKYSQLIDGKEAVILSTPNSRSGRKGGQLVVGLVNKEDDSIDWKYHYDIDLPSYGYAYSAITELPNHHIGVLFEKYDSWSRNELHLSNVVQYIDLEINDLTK
Assay [6] deals with T5, V. cholerae sialidase (Vibrio cholerae serotype O1, UniProt P0C6E9). Description: biochemical. It counts as biochemical.
T5 sequence (P0C6E9 25-781): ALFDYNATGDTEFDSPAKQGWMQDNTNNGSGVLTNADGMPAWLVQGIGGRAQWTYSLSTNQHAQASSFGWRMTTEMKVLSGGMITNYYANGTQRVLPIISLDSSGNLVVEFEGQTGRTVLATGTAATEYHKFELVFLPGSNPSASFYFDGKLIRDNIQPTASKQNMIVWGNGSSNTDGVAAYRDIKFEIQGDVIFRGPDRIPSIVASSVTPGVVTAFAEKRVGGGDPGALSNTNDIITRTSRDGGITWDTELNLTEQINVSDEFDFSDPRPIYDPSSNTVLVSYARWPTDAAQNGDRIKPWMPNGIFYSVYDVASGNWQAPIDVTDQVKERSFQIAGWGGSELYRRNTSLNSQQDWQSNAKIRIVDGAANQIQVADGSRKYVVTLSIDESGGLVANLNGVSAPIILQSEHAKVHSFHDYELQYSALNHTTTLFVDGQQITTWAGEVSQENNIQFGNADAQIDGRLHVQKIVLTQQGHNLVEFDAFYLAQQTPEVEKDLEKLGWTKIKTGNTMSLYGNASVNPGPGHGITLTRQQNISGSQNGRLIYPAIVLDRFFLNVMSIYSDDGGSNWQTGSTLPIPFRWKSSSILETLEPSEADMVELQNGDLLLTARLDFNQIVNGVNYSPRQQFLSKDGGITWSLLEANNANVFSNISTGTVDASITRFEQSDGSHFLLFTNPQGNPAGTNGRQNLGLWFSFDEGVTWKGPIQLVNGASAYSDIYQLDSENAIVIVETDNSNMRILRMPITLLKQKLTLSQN
In assay [7] the target is C. perfringens sialidase (CpNanI) (Clostridium perfringens, UniProt A0A0H2YQR1). Description: biochemical.
Chain of C. perfringens sialidase (CpNanI) (A0A0H2YQR1 27-694 limits assumed): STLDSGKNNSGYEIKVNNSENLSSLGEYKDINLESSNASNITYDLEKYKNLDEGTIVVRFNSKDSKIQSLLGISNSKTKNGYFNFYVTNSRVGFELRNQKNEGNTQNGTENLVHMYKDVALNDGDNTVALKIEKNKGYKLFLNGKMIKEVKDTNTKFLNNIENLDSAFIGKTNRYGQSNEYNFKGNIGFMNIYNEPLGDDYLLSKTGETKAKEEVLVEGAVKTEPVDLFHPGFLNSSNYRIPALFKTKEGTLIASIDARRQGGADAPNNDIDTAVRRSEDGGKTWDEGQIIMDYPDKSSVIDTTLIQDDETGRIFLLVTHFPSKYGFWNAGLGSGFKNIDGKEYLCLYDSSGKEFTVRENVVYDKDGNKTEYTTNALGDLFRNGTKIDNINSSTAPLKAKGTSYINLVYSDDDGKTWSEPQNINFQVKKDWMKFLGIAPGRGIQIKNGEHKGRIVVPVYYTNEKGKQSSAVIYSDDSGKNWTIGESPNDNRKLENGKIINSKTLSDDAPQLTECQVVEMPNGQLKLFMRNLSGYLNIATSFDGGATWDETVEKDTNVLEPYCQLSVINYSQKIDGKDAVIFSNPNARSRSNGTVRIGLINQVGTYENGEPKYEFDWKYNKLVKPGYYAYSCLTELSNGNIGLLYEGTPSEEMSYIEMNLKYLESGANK
The target in assay [8] is T6, SpNanA (Streptococcus pneumoniae, UniProt P62575). Description: biochemical.
T6 sequence (P62575 54-1035): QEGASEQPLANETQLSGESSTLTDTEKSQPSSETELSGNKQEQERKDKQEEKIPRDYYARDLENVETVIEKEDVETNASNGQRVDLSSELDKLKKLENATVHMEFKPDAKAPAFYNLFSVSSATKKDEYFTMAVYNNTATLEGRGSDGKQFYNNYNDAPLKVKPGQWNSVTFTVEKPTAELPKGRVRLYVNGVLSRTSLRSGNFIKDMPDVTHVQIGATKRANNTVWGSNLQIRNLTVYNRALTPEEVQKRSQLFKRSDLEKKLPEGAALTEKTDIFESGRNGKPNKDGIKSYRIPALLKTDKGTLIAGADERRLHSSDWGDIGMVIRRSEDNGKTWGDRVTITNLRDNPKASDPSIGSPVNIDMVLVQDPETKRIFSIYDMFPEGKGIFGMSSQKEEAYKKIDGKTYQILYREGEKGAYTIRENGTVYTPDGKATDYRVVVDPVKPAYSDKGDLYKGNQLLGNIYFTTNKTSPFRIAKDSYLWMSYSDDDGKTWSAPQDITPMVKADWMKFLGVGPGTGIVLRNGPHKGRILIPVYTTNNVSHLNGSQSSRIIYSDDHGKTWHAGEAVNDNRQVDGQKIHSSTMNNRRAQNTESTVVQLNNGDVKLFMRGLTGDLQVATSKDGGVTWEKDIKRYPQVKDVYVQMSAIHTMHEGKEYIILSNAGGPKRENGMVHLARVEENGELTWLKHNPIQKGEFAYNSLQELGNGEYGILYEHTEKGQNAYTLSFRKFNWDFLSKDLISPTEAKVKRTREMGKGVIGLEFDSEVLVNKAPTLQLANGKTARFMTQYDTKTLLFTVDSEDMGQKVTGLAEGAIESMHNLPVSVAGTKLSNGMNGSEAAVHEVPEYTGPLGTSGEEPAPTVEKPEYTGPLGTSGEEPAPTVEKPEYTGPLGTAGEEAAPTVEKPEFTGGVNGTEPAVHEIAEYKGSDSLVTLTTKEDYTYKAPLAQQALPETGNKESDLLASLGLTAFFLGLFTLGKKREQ
Assay [9] addresses T7, SpNanC (Streptococcus pneumoniae, UniProt A0A0H2UQE4). Put plainly: biochemical. Particulars: for inhibition at 100 µM / inhibition at 1000 µM: read-out: Percentage inhibition, SpNanC.
The subject of assay [10] is C. perfringens sialidase CpNanI. It counts as biochemical, Clostridium perfringens. Particulars: inhibitor:sialidase 2:1 molar ratio, 23 °C; for sensitivity of CpNanI to the covalent inhibitor in the time course study: Figures 2A, S2A.
In assay [11] the target is T3, BiNanH2. It counts as biochemical, Bifidobacterium longum subsp. infantis ATCC15697. The settings on record: inhibitor:sialidase 2:1 molar ratio, 23 °C.
Assay [12] addresses T1, hNEU2. It counts as biochemical. Particulars: inhibitor:sialidase 2:1 molar ratio; 23 °C; Figures 2E, S2E.
In assay [13] the target is T5, V. cholerae sialidase. The format is biochemical. The settings on record: inhibitor:sialidase 2:1 molar ratio; 23 °C.
The target in assay [14] is T6, SpNanA. The format is biochemical. The settings on record: inhibitor:sialidase 2:1 molar ratio, 23 °C.
For assay [15], the target named is T2, A. ureafaciens sialidase. The settings on record: read-out: IC50, A. ureafaciens; substrate Neu5Acα2–3GalβpNP; ref [47]; cited from earlier work.
In assay [16] the target is T7, SpNanC. Particulars: read-out: IC50, SpNanC; substrate Neu5Acα2–3GalβpNP; ref [25]; cited from earlier work.
The target in assay [17] is T4, PmST1. Particulars: read-out: IC50, PmST1; substrate Neu5Acα2–3GalβpNP; ref [25]; cited from earlier work.
[18] abbreviates: read-out: Percentage inhibition, BiNanH2.
The mark [19] stands for this setting: read-out: Percentage inhibition, V. cholerae.
Where [20] appears, read: read-out: Percentage inhibition, C. perfringens.
The mark [21] stands for this setting: read-out: Percentage inhibition, SpNanA.

T1 sequence (Q9Y3R4 whole entry): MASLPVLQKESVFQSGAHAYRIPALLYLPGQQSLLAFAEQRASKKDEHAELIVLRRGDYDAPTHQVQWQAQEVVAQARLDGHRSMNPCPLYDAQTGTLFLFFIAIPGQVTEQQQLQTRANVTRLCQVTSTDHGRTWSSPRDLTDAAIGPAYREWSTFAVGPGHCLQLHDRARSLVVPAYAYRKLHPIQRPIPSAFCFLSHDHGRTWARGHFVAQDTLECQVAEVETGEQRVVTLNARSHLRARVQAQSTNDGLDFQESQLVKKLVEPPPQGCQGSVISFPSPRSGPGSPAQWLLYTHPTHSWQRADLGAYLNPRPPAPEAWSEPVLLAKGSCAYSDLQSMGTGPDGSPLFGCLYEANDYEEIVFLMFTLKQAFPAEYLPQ

As for `CC(=O)N[C@@H]1[C@@H](O)[C@H](F)[C@](F)(C(=O)O)O[C@H]1[C@H](O)[C@H](O)CO` [Compound 1, 5-Acetamido-2,3,5-trideoxy-3-fluoro-D-erythro-α-L-gluco-non-2-ulopyranosylonic fluoride], the inhibition (commonly the share of the control response that was lost under treatment) at 100 µM in assay [1] is 75.4 ± 0.6%; in [2], 99.2 ± 0.3%; in assay [3] (setting [18]), 95.4 ± 0.9%; in assay [4], under 1%; in [5], 11.8 ± 1%; in [6] (setting [19]), 97.7 ± 0.3%. Also, the inhibition at 100 µM in assay [7] (setting [20]) was 80.6 ± 0.7%; in assay [8] (setting [21]) it was 99.7 ± 0.3%; in assay [9], under 1%. Besides, the IC50 (as a rule, the concentration needed to halve the response being measured) in [4] is over 1000 µM; in assay [5] it was over 1000 µM; in assay [6], 2 ± 0.1 µM; in [9] (read-out: IC50, SpNanC), over 1000 µM. Moreover, the inhibition at 1000 µM in assay [4] was 4.3 ± 0.1%; in assay [5], 30.2 ± 2.2%; in [9], 25.1 ± 6.1%.
For the molecule `CC(=O)N[C@@H]1[C@@H](O)[C@H](F)[C@](F)(C(=O)O)O[C@H]1[C@H](O)[C@H](O)CN=[N+]=[N-]` [Compound 2, 5-Acetamido-9-azido-2,3,5,9-tetradeoxy-3-fluoro-D-erythro-α-L-gluco-non-2-ulopyranosylonic fluoride], the inhibition at 100 µM in [1] was 82.3 ± 2.8%; in [2] it was 99.9 ± 0.2%; in assay [3] (setting [18]), 98.9%; in [4] it was under 1%; in assay [5] it was 26.8 ± 0.2%; in assay [6] (setting [19]) it was 99.2 ± 0.5%. The values for the inhibition at 100 µM in assay [7] (setting [20]), in assay [8] (setting [21]) and in assay [9] were 99.9 ± 0.1%, 85.8 ± 0.7% and under 1%, respectively. In addition, the IC50 in assay [4] was over 1000 µM; in assay [6], 0.73 µM; in [7], 0.73 µM; in [8], 0.21 µM. Moreover, the inhibition at 1000 µM in assay [4] amounted to 9.3 ± 2.3%; in assay [5], 51.9 ± 2.2%; in assay [9], 53.9 ± 0.1%. For the same molecule, the “sensitivity of CpNanI to the covalent inhibitor in the time course study” value in assay [10] is listed as “also sensitive”.
Take `[N-]=[N+]=N[C@@H]1[C@@H](O)[C@H](F)[C@](F)(C(=O)O)O[C@H]1[C@H](O)[C@H](O)CO` [Compound 3, 5-Azido-2,3,5-trideoxy-3-fluoro-D-erythro-α-L-gluco-non-2-ulopyranosylonic fluoride]: the inhibition at 100 µM in [1] is 37.5 ± 1.2%; in assay [2], 75.2 ± 0.2%; in assay [3] (setting [18]), 40.8 ± 3.4%; in assay [4], under 1%; in [5] it was 35.1 ± 0.8%; in [6] (setting [19]), 25 ± 1%. Further, the values for the inhibition at 100 µM in assay [7] (setting [20]), in [8] (setting [21]) and in [9] were 29.8 ± 1.2%, under 1% and under 1%, respectively. For the same molecule, the inhibition at 1000 µM in assay [1] came out at 80.7 ± 1.2%; in assay [3] (setting [18]), 85.6 ± 0.5%; in [4], 7.8 ± 0.3%; in assay [5] it was 38 ± 0.9%; in assay [6] (setting [19]), 76.6 ± 4.6%; in assay [7] (setting [20]) it was 30 ± 0.8%. Moreover, the inhibition at 1000 µM in assay [8] (setting [21]) is 29.6 ± 0.9%; in [9], 6.5 ± 0.8%. Further, the IC50 in [4], in [5], in [7] and in assay [8] was over 1000 µM in each case.
With `O=C(CO)N[C@@H]1[C@@H](O)[C@H](F)[C@](F)(C(=O)O)O[C@H]1[C@H](O)[C@H](O)CO` [Compound 4, 5-glycolamido-2,3,5-trideoxy-3-fluoro-D-erythro-α-L-gluco-non-2-ulopyranosylonic fluoride], the inhibition at 100 µM is 80.4 ± 1.3% in [1]; 96.1 ± 0.6% in [2]; 87.3 ± 0.8% in assay [3] (setting [18]); under 1% in assay [4]; 25.3 ± 1.7% in [5]; 97.8 ± 0.1% in assay [6] (setting [19]). For the same molecule, the figures for the inhibition at 100 µM in assay [7] (setting [20]), in assay [8] (setting [21]) and in assay [9] were 71.6 ± 1.2%, 78.4 ± 0.5% and under 1%, respectively. For the same molecule, the IC50 was over 1000 µM in [4], over 1000 µM in assay [5] and 1.6 ± 0.1 µM in assay [6]. In addition, the inhibition at 1000 µM in [4] is 22.4 ± 0.1%; in assay [5], 26 ± 4.9%; in [9], 5.5 ± 0.2%.
Regarding `CC(=O)N[C@@H]1[C@@H](O)[C@@H](F)[C@](F)(C(=O)O)O[C@H]1[C@H](O)[C@H](O)CO` [Compound 5, 5-Acetamido-2,3,5-trideoxy-3-fluoro-D-erythro-α-L-manno-non-2-ulopyranosylonic fluoride], the inhibition at 100 µM in assay [1] was 69.7 ± 0.4%; in assay [2] it was 99.9 ± 0.2%; in [3] (setting [18]) it was 98.9 ± 0.5%; in assay [4] it was under 1%; in [5] it was 12 ± 0.2%; in assay [6] (setting [19]), 96.8 ± 1.4%. The inhibition at 100 µM in assay [7] (setting [20]) is 99.9 ± 0.1%; in assay [8] (setting [21]), 99.9 ± 0.1%; in assay [9] it was under 1%. Also, the IC50 in assay [4] is over 1000 µM; in assay [5] it was over 1000 µM; in assay [6] it was 0.33 µM; in assay [7], 0.18 µM; in assay [8], 0.13 µM. In addition, the inhibition at 1000 µM in [4] stood at 3 ± 0.6%; in assay [5], 19 ± 0.2%; in assay [9], 55.2 ± 0.4%.
For `CC(=O)N[C@@H]1[C@@H](O)[C@@H](F)[C@](F)(C(=O)O)O[C@H]1[C@H](O)[C@H](O)CN=[N+]=[N-]` [Compound 6, 5-Acetamido-9-azido-2,3,5,9-tetradeoxy-3-fluoro-D-erythro-α-L-manno-non-2-ulopyranosylonic fluoride], the inhibition at 100 µM in assay [1] is 1.5 ± 0.3%; in [2] it was 99.9 ± 0.1%; in [3] (setting [18]) it was 98.8 ± 2.2%; in assay [4] it was under 1%; in [5], 16.7 ± 1.6%; in [6] (setting [19]) it was 99.9 ± 0.6%. Also, the results for the inhibition at 100 µM in assay [7] (setting [20]), in [8] (setting [21]) and in assay [9] were 99.9 ± 0.1%, 99.9 ± 0.1% and under 1%, respectively. Besides, the inhibition at 1000 µM came out at 53.4 ± 1.3% in [1], 6 ± 0.4% in assay [4], 43.8 ± 1.4% in assay [5] and 83.7 ± 3.5% in assay [9]. Also, the “time for de-activation of BiNanH2” value in assay [11] is under 10 min. Further, the “sensitivity of BiNanH2 to the covalent inhibitor in the time course study” value in assay [11] (Figures 2D, S2D) is “sensitive”. The “IC50 for BiNanH2 better than that for hNEU2” value in assay [3] (selectivity BiNanH2 versus hNEU2) is “at least 500 fold”. For the same molecule, the IC50 is over 1000 µM in assay [4]; over 1000 µM in [5]; 0.18 µM in assay [6]; 0.024 µM in [7]; 0.033 µM in assay [8]. Besides, in assay [6] (selectivity V. cholerae sialidase versus hNEU2), the “IC50 for V. cholerae sialidase better than that for hNEU2” value is on record as “at least 500 fold”. Moreover, in assay [10], the “time for de-activation of CpNanI” value was under 10 min. In addition, the “sensitivity of CpNanI to the covalent inhibitor in the time course study” value in [10] is on record as “sensitive”. In addition, the “sensitivity of hNEU2 to the covalent inhibitor in the time course study” value in [12] is given as “except for hNEU2”. Moreover, in assay [13], the “time for de-activation of V. cholerae sialidase” value was under 10 min. Besides, the “time for de-activation of SpNanA” value in assay [14] was under 10 min. The “sensitivity of SpNanA to the covalent inhibitor in the time course study” value in assay [14] (Figures 2C, S2C) is listed as “sensitive”.
Turning to `CC(=O)N[C@H]1[C@H]([C@H](O)[C@H](O)CO)OC(C(=O)O)=C[C@@H]1O` [Neu5Ac2en, 2-deoxy-2,3-didehydro-N-acetylneuraminic acid], the IC50 in assay [15] is 8.1 ± 0.3 µM; in [16] it was over 1000 µM; in [17] it was over 1000 µM.
